Laboratory results from patent US7851479B2, “Use of pyrimidinedione derivative for preventing or treating hepatitis C” (priority 2006, dated 2010).
Where two headings read alike, the source gives them in different places.

How the values were obtained:
[1] = drug toxicity control in uninfected MDBK cells (MTS staining); assay type: cell-based; details: bovine
Method: (§1) One day before the screening, MDBK cell line (Mardin-Darby bovine kidney, ATTC CCL22) which had been subcultured previously was trypsinized and spread on a plate, followed by counting the cell colonies formed. Then, equal amount of DMEM (Dulbecco's Modified Eagle's Medium) and Ham's F-12 were mixed, and 10% fetal bovine serum was added to the resulting mixture to prepare a tissue culture medium. The MDBK cells were inoculated to the medium at a concentration of 6×10^4 cells/ml, and then the resulting cell solution was added to a 96-well flat-bottomed plate in an amount of 100 μl per well.
(§2) Specified pyrimidinedione derivatives (SAMJIN Pharmaceuticals) were prepared as test compounds and a conventional drug for treating hepatitis C, Ribavirin (Sigma) was used as a comparative drug. Each of the test compounds was dissolved in DMSO to prepare a sample solution. Then, the resulting sample solution was diluted with a mixture prepared by mixing equal amount of DMEM and Ham's F-12 in accordance with the three one-log series dilution to prepare sample dilutes.
(§3) One day after adding MDBK cells to the 96-well plate, the culture solution on the plate was removed and each of the sample dilutes obtained step 2 was added thereto, adjusting the final concentration thereof to 1 to 100 μg/ml. The comparative drug, Ribavirin, was added to each of the control wells of the palte at a concentration of 1 to 100 μg/ml.
(§4) The well-plate comprising ‘cell control group well’ containing MDBK cell only; ‘virus control well’ containing MDBK cell and BVDV virus; ‘drug toxicity control well’ containing MDBK cell and sample compounds for assessing the cell toxicity of each sample; ‘drug calorimetric control well’ containing only one of the sample compounds; and ‘experimental group well’ containing MDBK cell, BVDV virus and one of the sample compounds.
(§5) The well-plate had been placed in a 5% CO2 incubator at 37° C. for 6 days, and then, analyzed with Cell Proliferation Assay kit (CellTiter96® AQUEOUS one solution, Promega). The analysis involves the step of counting live cells by a colorimetric method and the kit contains MTS, a new tetrazolium compound which forms a stable solution when the test compounds are added, and PES, an electron coupling agent. In a cell having vigorous metabolism, NADPH or NADH generated by mitochodrial dehydrogenase renders the soluble MTS to a form of […] formazan crystals. Therefore, the amount of formazan crystal is directly proportional to the number of live cells in a medium.
(§6) The CellTiter96® AQUEOUS one solution reagent of 10 μl was added to each well of the plate and cultivated in a incubator at 37° C. for 4 hours. Then, the plate was covered with an adhesive plate sealer, mixing formazan crystals. Absorbance of each well was measured by Molecular Devices Vmax plate reader (Molecular Devices) at 490 nm.
The toxicity of each sample compound was analyzed with a in-house computer program and the cytopathic effect (CPE), followed by calculating % cell activity, therapeutic Index (TI).
In table 2, EC50 means the dosage at which the desired response is present for 50% of the population, i.e., the concentration of the sample compounds at which the BVDV infection was inhibited for 50% of MDBK cells; TC50 means the dosage at which cell death is induced for 50% of the population, i.e., the cytotoxicity of the sample compounds for MDBK cells. TI (TC50/EC50) means a comparison of the amount of a therapeutic agent that causes the therapeutic effect to the amount that causes toxic effects. Quantitatively, it is the ratio given by the dose required to produce the toxic effect divided by the therapeutic dose.

[2] = test system: bovine viral diarrhea virus (BVDV); test: anti-BVDV drug screening assay (CPE inhibition, MTS staining); assay type: cell-based; details: for EC50: Bovine viral diarrhea virus isolates and strains, 144 h, read-out: MDBK/BVDV EC50; for TI (TC50/EC50): therapeutic index, MDBK TC50 / BVDV EC50
Method: To assess the effectiveness of the pyrimidinedione derivative used in the present invention as a drug for preventing or treating hepatitis C, an anti-BVDV drug screening assay was conducted with bovine viral diarrhea virus (BVDV). BVDV, a virus having a genome, reproduction cycle and infection type similar to hepatitis C virus, was employed because hepatitis C virus can not be subjected to […] cultivation.
as §1
Meanwhile, BVDV (ATCC VR534), which had been stored in a −80° C. freezer at a pre-determined concentration, was transferred to a biological safety cabinet and allowed to thaw at room temperature. The virus was diluted with the tissue culture medium in an sufficient amount for the virus in each well to induce 85 to 95% cell death 6 days after the virus infection.
as §2, §3, §4, §5, §6
The toxicity of each sample compound was analyzed with a in-house computer program and the cytopathic effect (CPE), followed by calculating % cell activity, therapeutic Index (TI). […]

[3] = concentration at which BVDV infection was inhibited for 50% of MDBK cells, 6 days, MTS

Row | SMILES | CC50 at 6 days [1] | EC50 [2, 3] | TI (TC50/EC50) [2] | EC50 ([2]; MDBK) | CC50 at 6 days ([1]; uninfected MDBK cells (drug toxicity control wells), cytotoxicity for MDBK cells, 6 days, MTS, read-out: MDBK TC50)
1 | Cc1cc(C)cc(Sc2c(C(C)C)c(=O)[nH]c(=O)n2CC2CCCCC2)c1 [Sample 1k, 1-cyclohexylmethyl-6-(3,5-dimethyl-phenylsulfanyl)-5-isopropyl-1H-pyrimidine-2,4-dione] | 6.6 µM | 1.29 µM | 5.11 |  | 
2 | CCc1c(Oc2cc(C)cc(C)c2)n(CC2=CCCC2)c(=O)[nH]c1=O [Sample 1f, 1-cyolopent-1-enymethyl-6-(3,5-dimethyl-phenoxy)-5-ethyl-1H-pyrimidine-2,4-dione] | > 100 µM | 1.51 µM | >66.3 |  | 
3 | Cc1cc(C)cc(Oc2c(C(C)C)c(=O)[nH]c(=O)n2CCC2C=CCC2)c1 (stereo not drawn) [Sample 1m, 1-(2-cyclopent-2-enyl-ethyl)-6-(3,5-dimethyl-phenoxy)-5-isopropyl-1H-pyrimidine-2,4-dione] | > 50 µM |  | >3.7 | 13.4 µM | 
4 | Cc1cc(C)cc(Sc2c(C(C)C)c(=O)[nH]c(=O)n2CC2CCCC2)c1 [Sample 1d, 1-cyclopentylmethyl-6-(3,5-dimethyl-phenylsulfanyl)-5-isopropyl-1H-pyrimidine-2,4-dione] | > 50 µM | 13.7 µM | >3.7 |  | 
5 | Cc1cc(C)cc(Sc2c(C(C)C)c(=O)[nH]c(=O)n2CC2CCC2)c1 [Sample 1c, 1-cyclobutylmethyl-6-(3,5-dimethyl-phenylsulfanyl)-5-isopropyl-1H-pyrimidine-2,4-dione] | 6.6 µM | 1.44 µM | 4.58 |  | 
6 | Cc1cc(C)cc(Sc2c(C(C)C)c(=O)[nH]c(=O)n2CC2=CCCC2)c1 [Sample 1e, 1-cyclopent-1-enymethyl-6-(3,5-dimethyl-phenylsulfanyl)-5-isopropyl-1H-pyrimidine-2,4-dione] | > 50 µM | 10.2 µM | >4.9 |  | 
7 | Cc1cc(C)cc(Oc2c(C(C)C)c(=O)[nH]c(=O)n2CC2=CCCC2)c1 [Sample 1g, 1-cyclopent-1-enymethyl-6-(3,5-dimethyl-phenoxy)-5-isopropyl-1H-pyrimidine-2,4-dione] | > 50 µM | 20.1 µM | >2.5 |  | 
8 | Cc1cc(C)cc(C(=O)c2c(C(C)C)c(=O)[nH]c(=O)n2CCC2C=CCC2)c1 (stereo not drawn) [Sample 1o, 1-(2-cyclopent-2-enyl-ethyl)-6-(3,5-dimethyl-benzoyl)-5-isopropyl-1H-pyrimidine-2,4-dione] | 6.94 µM |  | 3.73 | 1.86 µM | 
9 | CCc1c(Oc2cc(C)cc(C)c2)n(CC2CC2)c(=O)[nH]c1=O [Sample 1b, 1-cyclopropylmethyl-6-(3,5-dimethyl-phenoxy)-5-ethyl-1H-pyrimidine-2,4-dione] | > 100 µM | 14.1 µM | >7.1 |  | 
10 | CCc1c(C(=O)c2cc(C)cc(C)c2)n(CC2=CCCC2)c(=O)[nH]c1=O [Sample 1h, 1-cyclopent-1-enymethyl-6-(3,5-dimethyl-benzoyl)-5-ethyl-1H-pyrimidine-2,4-dione] | 17.1 µM | 13.9 µM | 1.2 |  | 
11 | Cc1cc(C)cc(Sc2c(C(C)C)c(=O)[nH]c(=O)n2CCC2CCCC2)c1 [Sample 1l, 1-(2-cyclopentyl-ethyl)-6-(3,5-dimethyl-phenylsulfanyl)-5-isopropyl-1H-pyrimidine-2,4-dione] | > 50 µM | 14 µM | >3.6 |  | 
12 | Cc1cc(C)cc(C(=O)c2c(C(C)C)c(=O)[nH]c(=O)n2CC2=CCCC2)c1 [Sample 1i, 1-cyclopent-1-enymethyl-6-(3,5-dimethyl-benzoyl)-5-isopropyl-1H-pyrimidine-2,4-dione] | 20.5 µM | 1.36 µM | 15.0 |  | 
13 | CC(C)c1c(Sc2ccccc2)n(CC2CC=CC2)c(=O)[nH]c1=O [Sample 1j, 1-cyclopent-3-enymethyl-5-isopropyl-6-phenylsulfanyl-1H-pyrimidine-2,4-dione] | > 50 µM | 13.7 µM | >3.7 |  | 
14 | Cc1cc(C)cc(Sc2c(C(C)C)c(=O)[nH]c(=O)n2CC2CC2)c1 [Sample 1a, 1-cyclopropylmethyl-6-(3,5-dimethyl-phenylsulfanyl)-5-isopropyl-1H-pyrimidine-2,4-dione] | 6.6 µM | 1.57 µM | 4.2 |  | 
15 | NC(=O)c1ncn([C@@H]2O[C@H](CO)[C@@H](O)[C@H]2O)n1 [Ribavirin, reference compound] |  | 1.66 µM | 4.2 |  | 7 µM
16 | CCc1c(C(=O)c2cc(C)cc(C)c2)n(CC2=CCC(CO)C2)c(=O)[nH]c1=O (stereo not drawn) [Sample 1p, 6-(3,5-dimethyl-benzoyl)-5-ethyl-1-(4-hydroxymethyl-cyclopent-1-enylmethyl)-1H-pyrimidine-2,4-dione] | 66 µM | 15 µM | 5.11 |  | 
